Test results reported in patent US8143255B2, “Heteroalkyl linked pyrimidine derivatives” (S*BIO Pte Ltd., priority 2005, dated 2012).

What was measured:
CDK2/CyclinA = biological target: T1, CDK2/CyclinA (Homo sapiens, UniProt P24941); experiment: In vitro kinase activity assay (PKLight), CDK2/Cyclin A; type: biochemical; conditions: recombinant CDK2/Cyclin A, RbING substrate, 0.5 μM ATP, 2 hr
T1 construct: purchased Invitrogen PV3267
Experimental: (§1) All assays were carried out in 384-well white microtiter plates using the PKLight assay system from Cambrex (East rutherford, N.J.). This assay platform is essentially a luminometdc assay for the detection of ATP in the reaction using a luciferase-coupled reaction. For CDK2/Cyclin A assay, the reaction mixture consisted of the following components in 25 μL assay buffer (50 mM Hepes pH 7.5, 10 mM MgCl2, 5 mM MnCl2, 5 mM BGP, 1 mM DTT, 0.1 mM sodium orthovanadate), 1.4 μg/mL of CDK2/Cyclin A complex, 0.5 μM of RbING substrate (Invitrogen, Cat # PV2939) and 0.5 μM of ATP. The compounds were tested at 8 concentrations prepared from 4-fold serial dilution starting at 10 μM. The reaction was incubated at room temperature for 2 hr. 13 μL of PKLight ATP detection reagent was added and the reaction was incubated for 10 min. Luminescence signals were detected on a multi-label plate reader (Victor^2 V 1420, Perkin-Elmer). The other kinase assays were identical except for the following differences in reagents. For FLT3 assays, the reaction contained 2.0 μg/mL FLT3 enzyme, 5 μM of poly(Glu,Tyr) substrate (Sigma, Cat # P0275) and 4 μM of ATP. For JAK2 assays, the reaction contained 0.6 μg/mL of JAK2 enzyme, 2 μM of poly(Glu,Ala,Tyr) substrate (Sigma, Cat # P3899) and 0.2 μM of ATP. […] The analytical software, Prism 4.0 (GraphPad Software Pte Ltd) was used to generate IC50 values from the data.

FLT3 = biological target: T2, FLT3 (Homo sapiens, UniProt P36888); experiment: In vitro kinase activity assay (PKLight), FLT3; type: biochemical; conditions: recombinant FLT3, poly(Glu,Tyr) substrate, 4 μM ATP
T2 construct: purchased Invitrogen PV3182
T2 sequence (P36888 27-993): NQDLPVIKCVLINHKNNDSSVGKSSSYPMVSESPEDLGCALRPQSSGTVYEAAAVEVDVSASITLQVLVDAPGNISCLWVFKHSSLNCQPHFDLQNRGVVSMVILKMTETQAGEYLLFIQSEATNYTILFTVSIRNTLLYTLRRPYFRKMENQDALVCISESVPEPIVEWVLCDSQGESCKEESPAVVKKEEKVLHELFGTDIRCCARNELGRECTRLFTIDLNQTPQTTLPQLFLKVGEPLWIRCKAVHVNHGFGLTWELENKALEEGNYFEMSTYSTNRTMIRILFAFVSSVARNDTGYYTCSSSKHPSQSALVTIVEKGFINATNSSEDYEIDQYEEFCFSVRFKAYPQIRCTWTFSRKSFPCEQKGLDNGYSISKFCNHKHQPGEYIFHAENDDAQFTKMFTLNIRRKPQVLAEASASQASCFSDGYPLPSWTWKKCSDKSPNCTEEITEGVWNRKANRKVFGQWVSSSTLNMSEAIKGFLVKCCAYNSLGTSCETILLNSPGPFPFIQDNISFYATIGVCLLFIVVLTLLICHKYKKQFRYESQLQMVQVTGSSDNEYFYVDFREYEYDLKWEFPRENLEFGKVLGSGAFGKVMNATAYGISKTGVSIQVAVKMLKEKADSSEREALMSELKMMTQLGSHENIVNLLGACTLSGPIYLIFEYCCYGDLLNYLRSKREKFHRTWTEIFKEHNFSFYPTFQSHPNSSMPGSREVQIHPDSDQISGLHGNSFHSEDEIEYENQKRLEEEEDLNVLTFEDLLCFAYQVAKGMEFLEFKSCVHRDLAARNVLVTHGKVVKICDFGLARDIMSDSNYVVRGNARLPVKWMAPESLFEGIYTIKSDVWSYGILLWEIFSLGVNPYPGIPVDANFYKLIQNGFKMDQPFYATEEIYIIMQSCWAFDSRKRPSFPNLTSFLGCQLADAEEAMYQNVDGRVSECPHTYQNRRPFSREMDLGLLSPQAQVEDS
Experimental: The recombinant enzymes (CDK2/CyclinA, FLT3, JAK2 and JAK2 V617F) were purchased from Invitrogen (Cat # PV3267, 3182, 4210 and 4347 respectively). All assays were carried out in 384-well white microtiter plates using the PKLight assay system from Cambrex (East rutherford, N.J.). This assay platform is essentially a luminometdc assay for the detection of ATP in the reaction using a luciferase-coupled reaction. For CDK2/Cyclin A assay, the reaction mixture consisted of the following components in 25 μL assay buffer (50 mM Hepes pH 7.5, 10 mM MgCl2, 5 mM MnCl2, 5 mM BGP, 1 mM DTT, 0.1 mM sodium orthovanadate), 1.4 μg/mL of CDK2/Cyclin A complex, 0.5 μM of RbING substrate (Invitrogen, Cat # PV2939) and 0.5 μM of ATP. The compounds were tested at 8 concentrations prepared from 4-fold serial dilution starting at 10 μM. The reaction was incubated at room temperature for 2 hr. 13 μL of PKLight ATP detection reagent was added and the reaction was incubated for 10 min. Luminescence signals were detected on a multi-label plate reader (Victor^2 V 1420, Perkin-Elmer). The other kinase assays were identical except for the following differences in reagents. For FLT3 assays, the reaction contained 2.0 μg/mL FLT3 enzyme, 5 μM of poly(Glu,Tyr) substrate (Sigma, Cat # P0275) and 4 μM of ATP. For JAK2 assays, the reaction contained 0.6 μg/mL of JAK2 enzyme, 2 μM of poly(Glu,Ala,Tyr) substrate (Sigma, Cat # P3899) and 0.2 μM of ATP. For JAK2 V617F mutant assays, the reaction contained 8.0 μg/mL of JAK2 mutant enzyme, 2 μM of poly(Glu,Ala,Tyr) substrate (Sigma, Cat # P3899) and 0.2 μM of ATP. The analytical software, Prism 4.0 (GraphPad Software Pte Ltd) was used to generate IC50 values from the data. […] IC50 values are shown below in Table 3.

JAK2 = biological target: T3, JAK2 (Homo sapiens, UniProt O60674); experiment: In vitro kinase activity assay (PKLight), JAK2; type: biochemical; conditions: recombinant JAK2, poly(Glu,Ala,Tyr) substrate, 0.2 μM ATP
T3 construct: purchased Invitrogen PV4210
Experimental: as §1

[1] = test system: HL60 (acute myeloid leukemia cell line); experiment: Cell-based proliferation assay, HL60; conditions: Homo sapiens, HL-60; HL60 cells, 96 h treatment
Experimental: (§2) Human cancer cell lines HL60 (acute myeloid leukemia cell line), Colo205 (colon adenocarcinoma cell line), HEL92.1.7 (erythroleukemia cell line), MV4-11 (acute myeloid leukemia cell line) and DU145 (metastatic prostate cancer cell line) were obtained from ATCC. They were cultivated in the media according to the ATCC work instructions. Colo205 and DU145 cells were seeded in 96-wells plate 5000 cells per cell and 1000 cells per well respectively. HEL92.1.7 and MV4-11 cells were seeded at 6000 cells per well while HL60 cells were seeded at 8000 cells per well in 96 well plate. The plates were incubated at 37° C., 5% CO2, for 24 h. Cells were treated with compounds at various concentrations for 96 h. Cell growth was then monitored using Celltiter96 Aqueous One Solution Cell Proliferation Assay from Promega (Madison Wis.). Dose response curves were plotted to determine GI50 values for the compounds using XL-fit (ID Business Solution, Emeryville, Calif.).

[2] = test system: Colo205 (colon adenocarcinoma cell line); experiment: Cell-based proliferation assay, Colo205; conditions: Homo sapiens, COLO 205; Colo205 cells, 96 h treatment
Experimental: as §2

JAK2 V617F = biological target: T4, JAK2 V617F (Homo sapiens, UniProt O60674, V617F); experiment: In vitro kinase activity assay (PKLight), JAK2 V617F mutant; type: biochemical; conditions: recombinant JAK2 V617F mutant, poly(Glu,Ala,Tyr) substrate, 0.2 μM ATP
T4 construct: purchased Invitrogen PV4347
Experimental: as §1

[3] = test system: HEL92.1.7 (erythroleukemia cell line); experiment: Cell-based proliferation assay, HEL92.1.7; conditions: Homo sapiens, HEL 92.1.7; HEL92.1.7 cells, 96 h treatment
Experimental: as §2

[4] = test system: MV4-11 (acute myeloid leukemia cell line); experiment: Cell-based proliferation assay, MV4-11; conditions: Homo sapiens; MV4-11 cells, 96 h treatment
Experimental: as §2

T3 sequence (O60674 whole entry): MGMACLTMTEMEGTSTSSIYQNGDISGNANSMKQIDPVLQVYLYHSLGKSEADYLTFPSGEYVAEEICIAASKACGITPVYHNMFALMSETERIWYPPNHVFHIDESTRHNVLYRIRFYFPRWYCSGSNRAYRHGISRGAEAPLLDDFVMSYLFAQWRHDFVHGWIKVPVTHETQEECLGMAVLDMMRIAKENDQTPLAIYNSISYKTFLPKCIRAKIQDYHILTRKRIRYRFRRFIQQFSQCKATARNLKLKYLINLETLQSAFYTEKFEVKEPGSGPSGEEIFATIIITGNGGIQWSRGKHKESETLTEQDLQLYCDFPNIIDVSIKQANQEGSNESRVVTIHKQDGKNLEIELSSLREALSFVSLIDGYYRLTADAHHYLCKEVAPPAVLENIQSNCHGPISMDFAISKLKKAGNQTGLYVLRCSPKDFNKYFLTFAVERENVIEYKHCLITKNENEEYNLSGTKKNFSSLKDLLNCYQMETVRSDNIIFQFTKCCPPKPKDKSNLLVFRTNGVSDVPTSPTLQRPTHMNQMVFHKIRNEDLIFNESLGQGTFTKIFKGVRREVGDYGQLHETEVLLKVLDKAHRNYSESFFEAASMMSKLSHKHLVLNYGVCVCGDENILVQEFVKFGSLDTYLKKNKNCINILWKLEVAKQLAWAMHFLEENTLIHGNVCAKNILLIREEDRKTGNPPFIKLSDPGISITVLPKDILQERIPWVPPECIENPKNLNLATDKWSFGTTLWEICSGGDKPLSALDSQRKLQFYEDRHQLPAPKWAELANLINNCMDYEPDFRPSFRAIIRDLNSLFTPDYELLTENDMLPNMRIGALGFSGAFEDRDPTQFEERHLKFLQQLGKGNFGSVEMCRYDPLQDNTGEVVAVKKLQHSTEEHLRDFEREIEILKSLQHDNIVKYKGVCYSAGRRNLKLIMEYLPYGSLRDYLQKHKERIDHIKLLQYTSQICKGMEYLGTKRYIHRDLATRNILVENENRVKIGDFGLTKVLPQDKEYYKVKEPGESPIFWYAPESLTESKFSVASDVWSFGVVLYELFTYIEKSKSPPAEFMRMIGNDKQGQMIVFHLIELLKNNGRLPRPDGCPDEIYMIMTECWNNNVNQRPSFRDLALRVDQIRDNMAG
T4 sequence (O60674 whole entry V617F): as the sequence (O60674 whole entry) above, with V617F counted along it

| SMILES | IC50 (CDK2/CyclinA) [nM] | IC50 (FLT3) [nM] | IC50 (JAK2) [nM] | GI50 [1] [nM] | GI50 [2] [nM] | IC50 (JAK2 V617F) [nM] | GI50 [3] [nM] | GI50 [4] [nM] |
| --- | --- | --- | --- | --- | --- | --- | --- | --- |
| CN1C/C=C/CCOc2cc(ccc2N)-c2ccnc(n2)Nc2cccc(c2)C1 [Compound 38] | ≤ 1000 | ≤ 1000 | ≤ 1000 | ≤ 1000 | 1000 to 5000 |  |  |  |
| CN1C/C=C/CCOc2cccc(c2)-c2ccnc(n2)Nc2ccc(N3CCOCC3)c(c2)C1 [Compound 39] | ≤ 1000 | ≤ 1000 | ≤ 1000 | ≤ 1000 |  | ≤ 1000 | ≤ 1000 | ≤ 1000 |
| CN1C/C=C/CCOc2cccc(c2)-c2ccnc(n2)Nc2cc(ccn2)C1 [Compound 44] | 1000 to 5000 | > 5000 | > 5000 | 1000 to 5000 |  |  | 1000 to 5000 | 1000 to 5000 |
| CN1C/C=C/CCOc2cccc(c2)-c2ccnc(n2)Nc2ccc(OCCN3CCCCC3)c(c2)C1 [Compound 46] | ≤ 1000 | ≤ 1000 | ≤ 1000 | ≤ 1000 |  |  | ≤ 1000 | ≤ 1000 |
| CN1C/C=C/CCOc2cccc(c2)-c2ccnc(n2)Nc2ccc(OCCn3cncn3)c(c2)C1 [Compound 61] | ≤ 1000 | ≤ 1000 | ≤ 1000 | ≤ 1000 |  |  | ≤ 1000 | ≤ 1000 |
| CN1C/C=C/COCC2=CC=C(O2)c2ccnc(n2)Nc2cccc(c2)C1 [Compound 62] | ≤ 1000 | ≤ 1000 | ≤ 1000 | ≤ 1000 | 1000 to 5000 |  | 1000 to 5000 | ≤ 1000 |
| CCS(=O)(=O)CCOc1ccc2cc1CN(C)C/C=C/CCOc1cccc(c1)-c1ccnc(n1)N2 [Compound 70] | ≤ 1000 | ≤ 1000 | ≤ 1000 | ≤ 1000 | ≤ 1000 |  | ≤ 1000 | ≤ 1000 |
| CN1C/C=C/COCC2=CC=C(S2)c2ccnc(n2)Nc2ccc(OCCN3CCCC3)c(c2)C1 [Compound 74] | ≤ 1000 | ≤ 1000 | ≤ 1000 | ≤ 1000 |  |  | ≤ 1000 | ≤ 1000 |
| CN1C/C=C/CCOc2cccc(c2)-c2ccnc(n2)Nc2cc(N)cc(c2)C1 [Compound 81] | ≤ 1000 | ≤ 1000 | ≤ 1000 | ≤ 1000 |  |  | ≤ 1000 | ≤ 1000 |
